Reference: US20260345612A1, “THERAPEUTIC COMBINATIONS COMPRISING UBIQUITIN-SPECIFIC-PROCESSING PROTEASE 1 (USP1) INHIBITORS AND PARP1-SELECTIVE INHIBITORS” (KSQ Therapeutics, Inc., priority 2022, published 2026)

Experiments:
[1] = test system: olaparib resistant patient-derived breast xenograft; assay: Anti-tumor activity in olaparib resistant patient-derived breast xenograft model in nude mice; format: in vivo, Athymic nude mice
Source text: Example 1: Anti-Tumor Activity of Formula I Co-Crystal in Combination with the Selective PARP1 Inhibitor, AZD5305, in a Patient-Derived Breast Xenograft Model in Nude Mice
The USP1 inhibitor employed in the examples is the co-crystal described above in paragraphs and [0143]-[0155]. This co-crystal can be prepared as described in Example 6 of Published PCT WO2022/094096. The Formula I co-crystal is a co-crystal of gentisic acid and 6-(4-cyclopropyl-6-methoxypyrimidin-5-yl)-1-(4-(1-isopropyl-4-(trifluoromethyl)-1H-imidazol-2-yl)benzyl)-1H-pyrazolo[3,4-d]pyrimidine.
Anti-tumor activity of the USP1 inhibitor of Formula I co-crystal in combination with AZD5305 was evaluated in mice using an olaparib resistant patient-derived breast xenograft model in nude mice, as shown in FIGS. 1A through 1C. 6-9 week old female Athymic nude mice from Envigo were anesthetized, and a 20 mm^3 tumor fragment was placed subcutaneously via incision in the flank. When tumors established to a tumor volume ranging from 63 to 196 mm^3, mice were randomized into groups of 10 and were assigned into the following groups: control, Formula I (100 mg/kg), AZD5305 (10 mg/kg) or Formula I (100 mg/kg) and AZD5305 (10 mg/kg) in combination. […] Body weight and tumor volume were measured twice per week. Tumor volume was calculated as mean and standard error of the mean for each treatment group.

[2] = test system: breast xenograft tumors with resistance to AZD5305 monotherapy; assay: Combination activity in mice with tumors resistant to PARP inhibitors (AZD5305 monotherapy); format: in vivo, Athymic nude mice; conditions: from day 49, 5 mice resistant to AZD5305 monotherapy; Formula I (100 mg/kg) and AZD5305 (10 mg/kg); FIG. 1B
Description: Anti-tumor activity of the USP1 inhibitor of Formula I co-crystal in combination with AZD5305 was evaluated in mice using an olaparib resistant patient-derived breast xenograft model in nude mice, as shown in FIGS. 1A through 1C. 6-9 week old female Athymic nude mice from Envigo were anesthetized, and a 20 mm^3 tumor fragment was placed subcutaneously via incision in the flank. When tumors established to a tumor volume ranging from 63 to 196 mm^3, mice were randomized into groups of 10 and were assigned into the following groups: control, Formula I (100 mg/kg), AZD5305 (10 mg/kg) or Formula I (100 mg/kg) and AZD5305 (10 mg/kg) in combination. Compound was administered via oral gavage once daily for at least 42 days dependent upon the treatment group. Body weight and tumor volume were measured twice per week. Tumor volume was calculated as mean and standard error of the mean for each treatment group.

SMILES	resistance to AZD5305 monotherapy ([1]; AZD5305 (10 mg/kg) monotherapy, oral once daily, day 49, 5 mice)	anti-tumor activity compared to equivalent doses of the single agents ([1]; Formula I (100 mg/kg) and AZD5305 (10 mg/kg), oral gavage once daily, at least 42 days, FIG. 1A)	tumor volume after addition of Formula I, compared to remaining animals on AZD5305 monotherapy [2]
CCc1cc2ncc(CN3CCN(c4ccc(C(=O)NC)nc4)CC3)cc2[nH]c1=O [AZD5305, 5-[4-[(7-ethyl-6-oxo-5H-1,5-naphthyridin-3-yl)methyl]piperazin-1-yl]-N-methylpyridine-2-carboxamide, reference compound]	demonstrated resistance		
COc1ncnc(C2CC2)c1-c1ncc2cnn(Cc3ccc(-c4nc(C(F)(F)F)cn4C(C)C)cc3)c2n1 [Formula I, 6-(4-cyclopropyl-6-methoxypyrimidin-5-yl)-1-(4-(1-isopropyl-4-(trifluoromethyl)-1H-imidazol-2-yl)benzyl)-1H-pyrazolo[3,4-d]pyrimidine]		enhances antitumor activity of AZD5305	decrease in tumor volume
